Results reported in US20250059581A1, “METHOD OF BACTERIAL IDENTIFICATION AND TESTING OF BACTERIUM RESISTANT TO ONE OR MORE ANTIBIOTICS” (Nanyang Technological University, priority 2021, published 2025).

Tests used:
[1] = system: drug-susceptible (SA 29213) S. aureus; assay: MILab-based MiChip (SERS) assay; type: cell-based
BAA39 [2] = assay: MILab-ELISA assay; type: cell-based, S. aureus; conditions: penicillin G 16 μg/mL
MRSA BAA39 = assay: Flow cytometry of metabolic labelling under penicillin G; type: cell-based, S. aureus; conditions: penicillin G up to 128 μg/mL, 3 h
SA 29213 [3] = assay: MILab-microarray assay; type: cell-based, S. aureus
[4] = system: methicillin-resistant S. aureus (MRSA BAA39); assay: Metabolic labelling (D-Ala-N3 / DBCO-AF488) fluorescence under penicillin G treatment; type: cell-based
[5] = system: methicillin-susceptible S. aureus (SA 29213); assay: as above; type: cell-based
BAA39 [6] = assay: MILab-LFA assay; type: cell-based, S. aureus
[7] = system: drug-resistant (BAA40) S. aureus; assay: MILab-based MiChip (SERS) assay; type: cell-based
S. aureus 29213 = assay: Flow cytometry of metabolic labelling under penicillin G; type: cell-based; conditions: penicillin G 0-128 μg/mL, 3 h, vs untreated controls
SA 29213 [8] = assay: MILab-ELISA assay; type: cell-based, S. aureus; conditions: penicillin G 16 μg/mL
SA 29213 [9] = assay: MILab-LFA assay; type: cell-based, S. aureus
MRSA BAA38 = assay: MILab-microarray assay; type: cell-based, S. aureus
[10] = penicillin G 16 μg/mL, 1×10^4 CFU/mL
[11] = penicillin G 16 μg/mL, 15 min to 4 hours

CC1(C)S[C@@H]2[C@H](NC(=O)Cc3ccccc3)C(=O)N2[C@H]1C(=O)[O-].[Na+] [penicillin G, Penicillin G sodium]
concentration at which weak Raman signals are generated ([1]; dose-dependence test, susceptible S. aureus): 8 µg/mL | Raman (SERS) signal over incubation time [1, 10]: negligible signals all the time | metabolism of bacteria (MILab-ELISA OD 650 nm) (BAA39 [2]): high metabolic activity | labelling degree of individual bacteria (flow cytometry) (MRSA BAA39): maintained significant labelling | microarray fluorescence signal at increasing drug concentration (SA 29213 [3]; Penicillin G 0 to 32 μg/mL, 2 hours, vs untreated controls): considerably reduced signal | microarray fluorescence signal over drug treatment time (SA 29213 [3]; [11]): negligible signal even at 4 hours | fluorescence intensity of metabolic labelling over incubation time ([4]; penicillin G 16 μg/mL, 0.5 to 5 h, resistant MRSA BAA39): increased quickly with increasing incubation time | metabolic labelling of single bacteria (confocal imaging) ([4]; penicillin G 16 μg/mL, resistant strains): selective labelling | fluorescence intensity of metabolic labelling at varying antibiotic concentration ([4]; penicillin G 2-128 μg/mL, resistant bacteria): much stronger fluorescence intensity | fluorescence intensity of metabolic labelling over incubation time ([5]; penicillin G 16 μg/mL, 0.5 to 5 h, susceptible SA 29213): kept constraint | metabolic labelling of single bacteria (confocal imaging) ([5]; penicillin G 16 μg/mL, susceptible strains): negligible labelling | fluorescence intensity of metabolic labelling at varying antibiotic concentration ([5]; penicillin G 2-128 μg/mL, susceptible bacteria): completely inhibit the metabolic labelling | MILab-LFA signal over drug treatment (incubation) time (BAA39 [6]; penicillin G, up to 4 hours): showed signal after 30 min | concentration that completely inhibits the bacteria (MILab-LFA test line) (BAA39 [6]; resistant bacteria BAA39): 64 µg/mL | concentration at which weak Raman signals are generated ([7]; dose-dependence test, resistant S. aureus): 128 µg/mL | Raman (SERS) signal over incubation time [7, 10]: distinct Raman signal as short as 30 min | labelling degree of individual bacteria (flow cytometry) (S. aureus 29213): considerably reduced labelling | metabolism of bacteria (MILab-ELISA OD 650 nm) (SA 29213 [8]): completely inhibit the metabolism | MILab-LFA signal over drug treatment (incubation) time (SA 29213 [9]; penicillin G, up to 4 hours): no signal even after 4 hours | concentration that completely inhibits the bacteria (MILab-LFA test line) (SA 29213 [9]; susceptible bacteria SA 29213): 4 µg/mL | microarray fluorescence signal at increasing drug concentration (MRSA BAA38; Penicillin G 0 to 32 μg/mL, 2 hours): maintained significant signal | microarray fluorescence signal over drug treatment time (MRSA BAA38; [11]): increased with increasing penicillin G treatment time
